Data from US20220395511A1, “COMPOSITIONS AND METHODS FOR INCREASING CELL SURFACE OXYTOCIN RECEPTOR (OXTR)” (Washington University, priority 2021, published 2022).
“Also recorded” adds a separate entry of the source. Where two headings read alike, the source gives them in different places.

Tests used:
[1] = biological target: T1, WT OXTR endogenously expressed in hTERT-HM cells (Homo sapiens, UniProt P30559); experiment: Quantitative flow cytometry of cell surface HA-OXTR in hTERT-HM cells; format: cell-based; details: for decrease of baseline cell surface OXTR abundance: cycloheximide 25 μg/mL, brefeldin A 5 μg/mL
T1 construct: hTERT-immortalized human myometrial (hTERT-HM) cells, which endogenously express WT OXTR; endogenous in cells; host or cells: hTERT-HM (genome-edited: HA knock-in at the OXTR locus)
T1 sequence (P30559 1-389): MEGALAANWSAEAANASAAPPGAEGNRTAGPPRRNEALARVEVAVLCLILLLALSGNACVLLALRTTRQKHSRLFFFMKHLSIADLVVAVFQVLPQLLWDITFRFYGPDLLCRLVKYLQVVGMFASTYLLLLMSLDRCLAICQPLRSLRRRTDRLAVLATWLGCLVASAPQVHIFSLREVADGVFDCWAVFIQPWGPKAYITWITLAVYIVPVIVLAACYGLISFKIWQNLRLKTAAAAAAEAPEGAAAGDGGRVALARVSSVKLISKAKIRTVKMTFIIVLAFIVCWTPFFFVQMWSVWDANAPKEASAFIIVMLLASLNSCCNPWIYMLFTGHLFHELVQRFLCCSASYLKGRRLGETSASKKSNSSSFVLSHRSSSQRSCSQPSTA
Description: These experiments were performed in the hTERT-immortalized human myometrial cell line, which was modified to introduce an N-terminal HA tag upstream of OXTR. […] OXTR was quantified by performing flow cytometry with a fluorescent antibody against HA. TCOT=TC-OT 39 ((2S)—N-[[4-[(4,10-dihydro-1-methylpyrazolo[3,4-b][1,5]benzodiazepin-5(1H)-yl)carbonyl]-2-methylphenyl]methyl]-2-[(hexahydro-4-methyl-1H-1,4-diazepin-1-yl)thioxomethyl]-1-pyrrolidinecarboxamide), partial OXTR agonist. CON=conivaptan (N-[4-(2-methyl-4,5-dihydro-3H-imidazo[4,5-d][1]benzazepine-6-carbonyl)phenyl]-2-phenylbenzamide; also known as YM087), vasopressin inhibitor. TASP=TASP 0390325 (2-(3-Chloro-4-fluorophenyl)-N-(1-methylethyl)-6-[3-(4-morpholinyl)propoxy]-4-oxo-pyrido[2,3-d]pyrimidine-3(4H)-acetamide hydrochloride), vasopressin inhibitor. WAY=WAY 267464 (4-(3,5-Dihydroxybenzyl)-N-(2-methyl-4-[(1-methyl-4,10-dihydropyrazolo[3,4-b][1,5]benzodiazepin-5(1H)-yl)carbonyl]benzyl)piperazine-1-carboxamide), OXTR agonist. TOL=tolvaptan (N-(4-{[(5R)-7-Chloro-5-hydroxy-2,3,4,5-tetrahydro-1H-1-benzazepin-1-yl]carbonyl}-3-methylphenyl)-2-methylbenzamide; also known as OPC41061), vasopressin inhibitor. OPC=OPC 21268 (N-[3-[4-[[4-(3,4-dihydro-2-oxo-1(2H)-quinolinyl)-1-piperidinyl]carbonyl]phenoxy]propyl]-acetamide), vasopressin inhibitor. SSR=SSR 149415 ((2S,4R)-1-[(3R)-5-Chloro-1-[(2,4-dimethoxyphenyl)sulfonyl]-2,3-dihydro-3-(2-methoxyphenyl)-2-oxo-1H-indol-3-yl]-4-hydroxy-N,N-dimethyl-2-pyrrolidinecarboxamide), vasopressin inhibitor. SR=SR49059 ((2S)-1-[[(2R,3S)-5-Chloro-3-(2-chlorophenyl)-1-[(3,4-dimethoxyphenyl)sulfonyl]-2,3-dihydro-3-hydroxy-1H-indol-2-yl]carbonyl]-2-pyrrolidinecarboxamide), vasopressin inhibitor. L371=L371,257 (1-[1-[4-(1-acetylpiperidin-4-yl)oxy-2-methoxybenzoyl]piperidin-4-yl]-4H-3,1-benzoxazin-2-one), OXTR antagonist.
Because specific antibodies to OXTR are not commercially available, CRISPR-Cas9 was used to introduce an HA tag at the N-terminus of OXTR in the hTERT-HM cell line. […]
To determine the mechanism of action of SR49059 and L371,257, hTERT-HM cells were treated for 12 h with cycloheximide (25 μg/mL), which inhibits protein translation, and brefeldin A (5 μg/mL), which blocks protein transport from the endoplasmic reticulum to the Golgi.
The Genome Engineering and iPSC Center at Washington University in St Louis used CRISPR-Cas9 to introduce an HA tag at the N-terminus of the OXTR gene in hTERT-HM cells. After drug incubation, cells were detached with TrypLE Express (Thermo Fisher) before flow cytometry.

[2] = biological target: T2, WT OXTR in hTERT-HM cells (Homo sapiens, UniProt P30559); experiment: Oxytocin-induced IP1 production in hTERT-HM cells; format: cell-based; details: for increase of maximal IP1 production: hTERT-HM, N=5 (FIG. 8D)
T2 construct: hTERT-immortalized human myometrial (hTERT-HM) cells, which endogenously express WT OXTR; endogenous in cells; host or cells: hTERT-HM
T2 sequence (P30559 1-389): T1 sequence (P30559 1-389)

OXTR = biological target: T3, OXTR (Homo sapiens, UniProt P30559); details: in words, cited from earlier work
T3 sequence (P30559 1-389): T1 sequence (P30559 1-389)

WT OXTR = biological target: T4, WT OXTR (Homo sapiens, UniProt P30559); experiment: Quantitative flow cytometry of cell surface WT HA-OXTR-GFP in transfected HEK293T cells; format: cell-based; details: for more surface WT OXTR than vehicle-treated cells: HEK293T, WT HA-OXTR-GFP, 10 μM, 16 h
T4 construct: expressed in transfected cells; host or cells: HEK293T (transient)
T4 sequence (P30559 1-389): T1 sequence (P30559 1-389)

[3] = hTERT-HM, HA-OXTR, 10 μM, 16 h (overnight)

For `COc1ccc(S(=O)(=O)N2c3ccc(Cl)cc3[C@](O)(c3ccccc3Cl)[C@@H]2C(=O)N2CCC[C@H]2C(N)=O)cc1OC` [SR49059, (2S)-1-[[(2R,3S)-5-Chloro-3-(2-chlorophenyl)-1-[(3,4-dimethoxyphenyl)sulfonyl]-2,3-dihydro-3-hydroxy-1H-indol-2-yl]carbonyl]-2-pyrrolidinecarboxamide], which “treatment time at which surface OXTR reached a plateau” value ([1]; hTERT-HM time course) is on record?
Its value is 6 h.

What about the “effect on cell surface OXTR in hTERT-HM cells” value (from here on “effect … in hTERT-HM cells”) [1, 3] of the same compound?
Its value is “robustly increased”.

What about the “increase of cell surface OXTR abundance” value ([1]; hTERT-HM, 10 μM, 16 h) of the same compound?
Its value is 2.3 fold.

What about the “increase of surface OXTR localization after 4 h of treatment” value ([1]; hTERT-HM, 4 h) of the same compound?
The value was “more than twofold”.

What about the “effect on cell surface OXTR in cells also treated with cycloheximide” value ([1]; hTERT-HM, 12 h, 10 μM with cycloheximide 25 μg/mL) of the same compound?
The value was “no effect”.

And the “effect on cell surface OXTR in cells also treated with brefeldin A” value ([1]; hTERT-HM, 12 h, with brefeldin A 5 μg/mL)?
The value was “no effect”.

What about the “surface OXTR localization at 48 h of treatment” value ([1]; hTERT-HM, 48 h) of the same compound?
Its value is “remained high”.

And the “increase of maximal IP1 production” value [2]?
The value was 37%.

What about the “increase of maximal oxytocin response (IP1 accumulation)” value ([2]; human myometrial (hTERT-HM) cells, 10 μM overnight, N=3 (FIG. 2)) of the same compound?
Its value is 12%.

And the “reported OXTR affinity” value (OXTR)?
The value was “medium OXTR affinity”.

What about the “effect on cell surface WT OXTR” value (WT OXTR; HEK293T transfected with WT OXTR) of the same compound?
Its value is “robustly increased”.

And the “more surface WT OXTR than vehicle-treated cells” value (WT OXTR)?
Its value is 170%.

With `C[C@@H]1C[C@@H]([C@H](O)CC2CC(=O)NC(=O)C2)C(=O)[C@@H](C)C1` [Cycloheximide] as the compound, how does the “decrease of baseline cell surface OXTR abundance” value ([1]; hTERT-HM, 12 h) read?
Its value is 18%.

With `Cc1cc(C(=O)N2Cc3cnn(C)c3Nc3ccccc32)ccc1CNC(=O)N1CCC[C@H]1C(=S)N1CCCN(C)CC1` [TCOT39, (2S)-N-[[4-[(4,10-dihydro-1-methylpyrazolo[3,4-b][1,5]benzodiazepin-5(1H)-yl)carbonyl]-2-methylphenyl]methyl]-2-[(hexahydro-4-methyl-1H-1,4-diazepin-1-yl)thioxomethyl]-1-pyrrolidinecarboxamide] as the compound, how does the “effect … in hTERT-HM cells” value [1, 3] read?
The value was “decreased”.

With `C[C@H]1CCC/C=C/[C@@H]2C[C@H](O)C[C@H]2[C@H](O)/C=C/C(=O)O1` [brefeldin A] as the compound, how does the “decrease of baseline cell surface OXTR abundance” value ([1]; hTERT-HM, 12 h) read?
Its value is 62%.

For `Cc1cc(C(=O)N2Cc3cnn(C)c3Nc3ccccc32)ccc1CNC(=O)N1CCN(Cc2cc(O)cc(O)c2)CC1` [WAY26746, 4-(3,5-Dihydroxybenzyl)-N-(2-methyl-4-[(1-methyl-4,10-dihydropyrazolo[3,4-b][1,5]benzodiazepin-5(1H)-yl)carbonyl]benzyl)piperazine-1-carboxamide], which “effect … in hTERT-HM cells” value [1, 3] is on record?
Its value is “no effect”.

For `COc1ccc(S(=O)(=O)N2C(=O)[C@@](c3ccccc3OC)(N3C[C@H](O)C[C@H]3C(=O)N(C)C)c3cc(Cl)ccc32)c(OC)c1` [SSR149415, (2S,4R)-1-[(3R)-5-Chloro-1-[(2,4-dimethoxyphenyl)sulfonyl]-2,3-dihydro-3-(2-methoxyphenyl)-2-oxo-1H-indol-3-yl]-4-hydroxy-N,N-dimethyl-2-pyrrolidinecarboxamide], which “reported OXTR affinity” value (OXTR) is on record?
Its value is “medium OXTR affinity”.

What does the source list for `Cc1nc2c([nH]1)CCN(C(=O)c1ccc(NC(=O)c3ccccc3-c3ccccc3)cc1)c1ccccc1-2` [YM087, N-[4-(2-methyl-4,5-dihydro-3H-imidazo[4,5-d][1]benzazepine-6-carbonyl)phenyl]-2-phenylbenzamide]?
effect on cell surface OXTR in hTERT-HM cells [1, 3]: significantly decreased; reported OXTR affinity (OXTR): medium OXTR affinity

With `CC(=O)NCCCOc1ccc(C(=O)N2CCC(N3C(=O)CCc4ccccc43)CC2)cc1` [OPC21268, N-[3-[4-[[4-(3,4-dihydro-2-oxo-1(2H)-quinolinyl)-1-piperidinyl]carbonyl]phenoxy]propyl]-acetamide] as the compound, how does the “reported OXTR affinity” value (OXTR) read?
Its value is “medium OXTR affinity”.

For `CC(C)NC(=O)Cn1c(-c2ccc(F)c(Cl)c2)nc2ncc(OCCCN3CCOCC3)cc2c1=O.Cl` [TASP0390325, 2-(3-Chloro-4-fluorophenyl)-N-(1-methylethyl)-6-[3-(4-morpholinyl)propoxy]-4-oxo-pyrido[2,3-d]pyrimidine-3(4H)-acetamide hydrochloride], which “reported OXTR affinity” value (OXTR; hydrochloride) is on record?
Its value is “extremely low affinity; also recorded: antagonist; low”.

For `Cc1ccccc1C(=O)Nc1ccc(C(=O)N2CCC[C@@H](O)c3cc(Cl)ccc32)c(C)c1` [OPC41061, N-(4-{[(5R)-7-Chloro-5-hydroxy-2,3,4,5-tetrahydro-1H-1-benzazepin-1-yl]carbonyl}-3-methylphenyl)-2-methylbenzamide], which “effect … in hTERT-HM cells” value [1, 3] is on record?
The value was “increased”.

What does the source list for `COc1cc(OC2CCN(C(C)=O)CC2)ccc1C(=O)N1CCC(N2C(=O)OCc3ccccc32)CC1` [L371,257, 1-[1-[4-(1-acetylpiperidin-4-yl)oxy-2-methoxybenzoyl]piperidin-4-yl]-4H-3,1-benzoxazin-2-one]?
effect on cell surface OXTR in cells also treated with brefeldin A [1]: no effect; effect on cell surface OXTR in hTERT-HM cells [1]: greatest effect of all the candidate compounds; increase of cell surface OXTR abundance [1]: 2.9 fold; increase of surface OXTR in cells treated with cycloheximide [1]: 20%; increase of surface OXTR localization after 4 h of treatment [1]: more than twofold; surface OXTR localization at 48 h of treatment [1]: remained high; treatment time at which surface OXTR reached a plateau [1]: 6 h; increase of maximal IP1 production [2]: 35%; more surface WT OXTR than vehicle-treated cells (WT OXTR): 170%
